{"source": "patent US20120014912A1", "about": "“PALATABLE PHARMACEUTICAL COMPOSITION” (VERTEX PHARMACEUTICALS INCORPORATED, priority 2010, published 2012)", "system": "HCV", "assay": "Clinical trials, antiviral activity", "assay_type": "in vivo, Hepatitis C virus"}
{"smiles": "CCC[C@H](NC(=O)[C@@H]1[C@H]2CCC[C@H]2CN1C(=O)[C@@H](NC(=O)[C@@H](NC(=O)c1cnccn1)C1CCCCC1)C(C)(C)C)C(=O)C(=O)NC1CC1", "note": "[VX-950]", "values": [{"measurement": "antiviral activity", "result": "has shown antiviral activity"}]}
